The text below walks through data of patent publication US11865116B2, “Treatment of cancer with TG02” (Cothera Bioscience, Inc., priority 2016, dated 2024).

In one experiment the test system is BT245 cell line. The experiment can be described thus: Apoptosis in BT245 cell line. Conditions: 24 hours. The experiment is classed as cell-based.
Another experiment concerns MYC. The experiment can be described thus: MYC expression in MYC T-ALL cells. The experiment is classed as cell-based, mouse. Conditions: TG02 at 100 or 500 μM. Here is the method: (§1) A Tet-off transgenic mouse model of MYC-induced T cell acute lymphoblastic leukemia (MYC T-ALL) which over-expresses and is dependent on MYC, was treated with TG02 at 100 or 500 μM. As shown in FIGS. 23-26, when MYC was turned “on,” PD-L1 was expressed as detected by RT-PCR (t=0 hr). […] Reduced expression of both CD47 and PD-L1 on tumor cells may result in reduced immune evasion and increased tumor cell death.

Experiment [1] deals with locally advanced unresectable or metastatic colorectal cancer with overexpressed MYC and/or MCL1. The experiment can be described thus: Example 3 randomized Phase 2 study: pembrolizumab+TG02 vs pembrolizumab+placebo. Type of experiment: in vivo, human. Particulars: TG02 combined with pembrolizumab; tumors overexpressing MYC and/or MCL1. How it is done:
Patients receive 2-10 mg/kg pembrolizumab administered by intravenous infusion every three weeks and TG02 administered orally at 1, 2 or 3 mg/kg 3-7 days prior to pembrolizumab administration, on the day of pembrolizumab administration, and continuously thereafter until disease progression or until it is no longer beneficial. The control patients receive 2 mg/kg pembrolizumab administered by intravenous infusion every three weeks.

A further experiment relates to BCL-xL. The experiment can be described thus: BCL-xL expression in MYC T-ALL cells. The experiment is classed as cell-based, mouse. Conditions: TG02 at 100 or 500 μM. Here is the method:
as §1

The subject of experiment [2] is human pulmonary arterial endothelial cells. The experiment can be described thus: Cell viability by cell counting in normal cells. Type of experiment: cell-based. Particulars: 50 nM of TG02, 100 μM of TMZ, or TG02+TMZ for 72 hr, then normal medium another 7 days; FIG. 10. How it is done: (§2) Pulmonary arterial endothelial cells and human astrocytes were tested with 50 nM of TG02, 100 μM of TMZ, or TG02+TMZ for 72 hr. The cells were then changed to normal medium and cultured for another 7 days. Cell viability was determined by cell counting.

Another experiment deals with human astrocytes. The experiment can be described thus: Cell viability by cell counting in normal cells. The experiment is classed as cell-based. Conditions: 50 nM of TG02, 100 μM of TMZ, or TG02+TMZ for 72 hr, then normal medium another 7 days; FIG. 11. How it is done:
as §2

Experiment [3] concerns cancer with overexpressed MYC and/or MCL1. The experiment can be described thus: Example 1 clinical study: pembrolizumab or nivolumab with or without TG02. Type of experiment: in vivo, human. Particulars: TG02 in combination with pembrolizumab or nivolumab; tumors overexpress MYC and/or MCL1. How it is done:
This study is being done to compare progression-free or overall survival using pembrolizumab (p) or nivolumab (n) to p or n in combination with TG02 for participants with cancer who are untreated or have progressed after prior therapy and who have been selected for overexpressed MYC and/or MCL1 status. Participants will be randomized to receive either standard anti-PD-1 therapy plus placebo or standard anti-PD-1 therapy plus TG02.
A first group of patients receive 2-10 mg/kg pembrolizumab (or flat dose equivalent) administered by intravenous infusion every three weeks and TG02 administered orally at 100, 200 or 300 mg once daily until disease progression or is no longer beneficial. TG02 administration is started 3-7 days prior to initiating pembrolizumab therapy, continues on the day of pembrolizumab administration, and continues until disease progression or until TG02 therapy is no longer beneficial. The control patients receive 2-10 mg/kg pembrolizumab (or flat dose equivalent) administered by intravenous infusion every three weeks.
A second group of patients receive 3 mg/kg nivolumab administered over 60 minutes by intravenous infusion every 2 weeks and TG02 administered orally at 100, 200, or 300 mg once daily. […]

The subject of experiment [4] is patient-derived GBM stem cell lines. The experiment can be described thus: GBM stem cell proliferation, panel of 26 patient-derived lines. The experiment is classed as cell-based. Here is the method:
In a panel of 26 patient-derived GBM stem cell lines, the activity of TG02 on GBM stem cell proliferation was evaluated (FIG. 32).
The expression level of CDK9 and downstream markers, including MYC and Mcl-1, were measured to explore whether a correlation exists between protein expression and IC50 values in this GBM panel.

The subject of experiment [5] is cancer with overexpressed MYC and/or MCL1, relapsing from or refractory to anti-PD-1 therapy. The experiment can be described thus: Example 2 open label Phase 2 study: checkpoint blockade immunotherapy and TG02. The experiment is classed as in vivo, human. Particulars: TG02 with at least one checkpoint inhibitor; patients previously nonresponding to or failing checkpoint inhibitor therapy. The source says:
Open label Phase 2 study assessing the combination of checkpoint blockade immunotherapy and TG02 in patients relapsing from or refractory to standard anti-PD-1 therapy (p) or (n). • Primary endpoint: ORR • Secondary endpoints: PFS, OS, Duration of Response, Safety Inclusion Criteria: [table]

For the next experiment, the system named is GBM PDCLs. The experiment can be described thus: TG02 and radiation, cell proliferation in GBM PDCLs. Type of experiment: cell-based. Particulars: 72 hours post-treatment. How it is done:
A panel of GBM PDCLs, see Example 9, were chosen for evaluation of the combination of TG02 and radiation therapy for the treatment of glioblastoma (FIG. 31). Cells were treated first with TG02 at increasing concentrations. Within 30 minutes, cells were treated with increasing doses of radiation and cell proliferation was measured 72 hours post-treatment. […] The addition of TG02 augmented the effects radiation in a synergistic manner.

Molecules are shown by their SMILES.

As usually defined, the IC50 is the concentration that gives 50% inhibition. A high value points to weaker potency in that assay. For `CN1C/C=C/CCOc2cccc(c2)-c2ccnc(n2)Nc2cccc(c2)C1` [TG02, (16E)-14-methyl-20-oxa-5,7,14,26-tetraazatetracyclo[19.3.1.1(2,6).1(8,12)]heptacosa-1(25),2(26),3,5,8(27),9,11,16,21,23-decaene], the apoptosis result in the experiment on BT245 cell line is “significant increase in apoptosis”. The MYC expression entry with MYC is “down-regulated”. Moreover, the clinical activity entry in experiment [1] is on record as “superior clinical activity than pembrolizumab alone”. The BCL-xL expression result in the experiment on BCL-xL was “down-regulated”. Moreover, the “in vitro activity (cell viability)” value (in experiment [2]; in the experiment on human astrocytes) was “lack of in vitro activity” each time. Also, the antitumor clinical activity entry in experiment [3] is listed as “better antitumor clinical activity than the immune checkpoint inhibitors alone”. Also, the “sensitivity in relation to MYC expression” value in experiment [4] (GBM stem cell panel, FIG. 33) is listed as “High MYC expression was found to correlate with greater sensitivity”. The IC50 in experiment [4] (sixteen of 26 patient-derived GBM stem cell lines) is less than 250 nM. In experiment [5], the clinical response result was “reverses immune evasion and induces clinically relevant responses”. Also, the “cell proliferation, TG02 alone” value in the experiment with GBM PDCLs was “anti-proliferative activity”. Further, the “change from the Bliss predicted model, combination of TG02 and radiation” value in the experiment on GBM PDCLs (radiation within 30 minutes after TG02, multiple PDCLs) is on record as greater than 10%.
